Assay results as given in ChEMBL document CHEMBL5512634, “Sulfone-based human liver pyruvate kinase inhibitors - Design, synthesis and in vitro bioactivity” (Eur J Med Chem, 2024).
Values belong to the compound of their own block, whether it stands above or below them. Calls of active or inactive are those of the source. The calls are words filed in the database; no cut-off is given here.

Key:
Pyruvate kinase PKLR [1] = molecular target: T1, Pyruvate kinase PKLR (Homo sapiens, UniProt P30613); experiment: Inhibition of full length N-terminal His-tagged human PKL (2 to 543 residues) expressed in Escherichia coli at 10 uM by kinase Glo luminescence based plate reader assay relative to control
Target sequence in this assay (P30613 whole entry, looked up, the tested form may be a part): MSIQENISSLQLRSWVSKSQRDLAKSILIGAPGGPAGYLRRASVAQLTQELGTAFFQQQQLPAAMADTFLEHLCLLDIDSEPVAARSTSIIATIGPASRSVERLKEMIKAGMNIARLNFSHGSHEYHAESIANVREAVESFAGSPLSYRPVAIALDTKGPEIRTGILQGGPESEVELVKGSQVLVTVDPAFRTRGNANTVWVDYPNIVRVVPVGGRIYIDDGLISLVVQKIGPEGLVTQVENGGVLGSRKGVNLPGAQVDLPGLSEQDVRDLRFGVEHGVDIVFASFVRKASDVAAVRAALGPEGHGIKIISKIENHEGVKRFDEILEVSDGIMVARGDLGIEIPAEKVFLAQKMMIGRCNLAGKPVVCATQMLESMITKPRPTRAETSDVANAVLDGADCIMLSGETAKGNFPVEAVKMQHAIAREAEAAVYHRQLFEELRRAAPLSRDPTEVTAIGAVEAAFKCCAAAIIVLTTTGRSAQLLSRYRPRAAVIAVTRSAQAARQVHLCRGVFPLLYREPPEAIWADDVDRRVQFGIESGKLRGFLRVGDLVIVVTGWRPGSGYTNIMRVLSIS

Pyruvate kinase PKLR [2] = molecular target: T1, Pyruvate kinase PKLR; experiment: Inhibition of full length N-terminal His-tagged human PKL (2 to 543 residues) expressed in Escherichia coli by kinase Glo luminescence based plate reader assay
Target sequence in this assay (P30613 whole entry, the tested form may be a part): as the sequence (P30613 whole entry, looked up, the tested form may be a part) above

Pyruvate kinase PKLR [3] = molecular target: T1, Pyruvate kinase PKLR; experiment: Inhibition of PKR (unknown origin)
Target sequence in this assay (P30613 whole entry, looked up, the tested form may be a part): as above

HepG2 = experiment: Cytotoxicity against PKM2 knock out human HepG2 cells at 1 to 10 uM measured for 24 to 72 hrs; assay type: toxicity, cell-based; conditions: hepg2, 10 µM, dose lower 1 µM, time lower 24 hrs, dose upper 10 µM, time upper 72 hrs

- inhibition (Pyruvate kinase PKLR [1]): Active
Structure (SMILES): O=S1(=O)Oc2c(ccc(O)c2O)-c2cc(O)ccc21

- IC50 (Pyruvate kinase PKLR [2]): 0.07 µM
- IC50 (Pyruvate kinase PKLR [3]): 0.18 µM
Structure (SMILES): O=S1(=O)Oc2cc(O)c(O)c(O)c2-c2cc(O)c(O)cc21

Structure (SMILES): O=S1(=O)Oc2c(ccc(O)c2O)-c2cc(O)c(O)cc21
- Activity (HepG2): Non-Toxic
